Experimental data taken from ChEMBL document CHEMBL3431459, “Roche carnitine palmitoyltransferase modulator screening data (supplementary data associated with the publication CHEMBL2216752)”.
pIC50: −log10 of the molar value. Converted amounts (≈) assume the structure as drawn.

Experiments:
[1] = SUPPLEMENTARY: Lyophilisation Solubility Assay (LYSA); type: physicochemical; settings: read-out: Kinetic_solubility
[2] = biological target: T1, Carnitine O-palmitoyltransferase 1, muscle isoform (Homo sapiens, UniProt Q92523); experiment: SUPPLEMENTARY: Inhibition of Carnitine palmitoyltransferase 1, muscle isoform; parameters: species or system Muscle tissue
T1 sequence (Q92523 whole entry): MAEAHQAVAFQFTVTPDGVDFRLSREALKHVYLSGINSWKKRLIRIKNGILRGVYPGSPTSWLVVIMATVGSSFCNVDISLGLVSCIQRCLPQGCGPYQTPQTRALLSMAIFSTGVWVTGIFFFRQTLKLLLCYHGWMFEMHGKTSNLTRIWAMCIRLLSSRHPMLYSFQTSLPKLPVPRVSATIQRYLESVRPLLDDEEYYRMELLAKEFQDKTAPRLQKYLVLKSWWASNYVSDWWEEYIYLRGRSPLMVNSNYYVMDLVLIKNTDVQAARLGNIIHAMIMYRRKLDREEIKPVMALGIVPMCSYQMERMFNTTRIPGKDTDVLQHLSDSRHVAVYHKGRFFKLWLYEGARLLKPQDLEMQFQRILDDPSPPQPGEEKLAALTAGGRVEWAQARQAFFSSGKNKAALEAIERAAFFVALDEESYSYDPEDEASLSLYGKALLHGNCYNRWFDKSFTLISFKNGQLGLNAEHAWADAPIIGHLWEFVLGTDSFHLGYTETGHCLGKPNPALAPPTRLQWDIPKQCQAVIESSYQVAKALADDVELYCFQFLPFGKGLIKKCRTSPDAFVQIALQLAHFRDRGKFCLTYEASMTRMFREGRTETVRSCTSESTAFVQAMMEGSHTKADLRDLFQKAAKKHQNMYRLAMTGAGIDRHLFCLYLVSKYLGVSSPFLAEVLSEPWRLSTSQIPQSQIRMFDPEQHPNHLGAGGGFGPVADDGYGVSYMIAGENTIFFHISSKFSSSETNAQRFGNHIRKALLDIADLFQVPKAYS

[3] = biological target: T2, Carnitine O-palmitoyltransferase 2, mitochondrial (Homo sapiens, UniProt P23786); experiment: (§1) SUPPLEMENTARY: Inhibition of Carnitine palmitoyltransferase 2
T2 sequence (P23786 whole entry): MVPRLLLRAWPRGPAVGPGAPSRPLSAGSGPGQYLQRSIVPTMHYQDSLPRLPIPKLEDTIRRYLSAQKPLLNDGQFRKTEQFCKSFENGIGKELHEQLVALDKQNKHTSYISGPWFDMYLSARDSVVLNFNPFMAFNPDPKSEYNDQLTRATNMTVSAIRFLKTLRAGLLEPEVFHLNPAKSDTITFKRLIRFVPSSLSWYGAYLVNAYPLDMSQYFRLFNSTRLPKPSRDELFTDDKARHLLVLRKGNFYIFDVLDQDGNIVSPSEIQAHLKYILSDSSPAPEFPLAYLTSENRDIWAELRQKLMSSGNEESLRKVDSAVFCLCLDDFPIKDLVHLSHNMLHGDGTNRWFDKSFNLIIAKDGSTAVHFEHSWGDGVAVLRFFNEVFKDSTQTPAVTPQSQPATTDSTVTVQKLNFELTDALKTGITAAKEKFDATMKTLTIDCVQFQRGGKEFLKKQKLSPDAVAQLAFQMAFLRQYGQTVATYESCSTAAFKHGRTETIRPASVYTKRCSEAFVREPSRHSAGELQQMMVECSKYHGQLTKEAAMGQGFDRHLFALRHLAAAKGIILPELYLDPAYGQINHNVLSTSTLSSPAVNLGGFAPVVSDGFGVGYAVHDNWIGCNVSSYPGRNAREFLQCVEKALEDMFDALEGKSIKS

[4] = biological target: T3, Carnitine O-palmitoyltransferase 2, mitochondrial (Rattus norvegicus, UniProt P18886); experiment: as §1
T3 sequence (P18886 whole entry): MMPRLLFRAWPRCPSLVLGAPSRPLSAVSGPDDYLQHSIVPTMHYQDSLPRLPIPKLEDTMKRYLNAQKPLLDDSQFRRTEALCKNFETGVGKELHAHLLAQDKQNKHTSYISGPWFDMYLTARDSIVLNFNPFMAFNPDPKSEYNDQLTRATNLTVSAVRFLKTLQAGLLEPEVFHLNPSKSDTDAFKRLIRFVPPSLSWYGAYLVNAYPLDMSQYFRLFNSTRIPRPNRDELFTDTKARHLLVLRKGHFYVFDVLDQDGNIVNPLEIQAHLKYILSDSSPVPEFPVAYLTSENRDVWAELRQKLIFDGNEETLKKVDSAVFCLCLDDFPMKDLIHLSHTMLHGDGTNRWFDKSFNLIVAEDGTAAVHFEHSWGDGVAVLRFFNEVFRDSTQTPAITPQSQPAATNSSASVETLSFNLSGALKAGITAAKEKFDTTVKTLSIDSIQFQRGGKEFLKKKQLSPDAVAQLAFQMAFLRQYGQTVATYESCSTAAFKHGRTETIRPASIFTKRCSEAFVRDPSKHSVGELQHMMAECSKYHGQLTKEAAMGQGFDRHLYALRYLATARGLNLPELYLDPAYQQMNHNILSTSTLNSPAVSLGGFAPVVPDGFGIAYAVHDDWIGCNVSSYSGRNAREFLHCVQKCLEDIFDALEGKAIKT

[5] = biological target: T4, Carnitine O-palmitoyltransferase 1, liver isoform (Homo sapiens, UniProt P50416); experiment: (§2) SUPPLEMENTARY: Inhibition of Carnitine palmitoyltransferase 1, liver isoform
T4 sequence (P50416 whole entry): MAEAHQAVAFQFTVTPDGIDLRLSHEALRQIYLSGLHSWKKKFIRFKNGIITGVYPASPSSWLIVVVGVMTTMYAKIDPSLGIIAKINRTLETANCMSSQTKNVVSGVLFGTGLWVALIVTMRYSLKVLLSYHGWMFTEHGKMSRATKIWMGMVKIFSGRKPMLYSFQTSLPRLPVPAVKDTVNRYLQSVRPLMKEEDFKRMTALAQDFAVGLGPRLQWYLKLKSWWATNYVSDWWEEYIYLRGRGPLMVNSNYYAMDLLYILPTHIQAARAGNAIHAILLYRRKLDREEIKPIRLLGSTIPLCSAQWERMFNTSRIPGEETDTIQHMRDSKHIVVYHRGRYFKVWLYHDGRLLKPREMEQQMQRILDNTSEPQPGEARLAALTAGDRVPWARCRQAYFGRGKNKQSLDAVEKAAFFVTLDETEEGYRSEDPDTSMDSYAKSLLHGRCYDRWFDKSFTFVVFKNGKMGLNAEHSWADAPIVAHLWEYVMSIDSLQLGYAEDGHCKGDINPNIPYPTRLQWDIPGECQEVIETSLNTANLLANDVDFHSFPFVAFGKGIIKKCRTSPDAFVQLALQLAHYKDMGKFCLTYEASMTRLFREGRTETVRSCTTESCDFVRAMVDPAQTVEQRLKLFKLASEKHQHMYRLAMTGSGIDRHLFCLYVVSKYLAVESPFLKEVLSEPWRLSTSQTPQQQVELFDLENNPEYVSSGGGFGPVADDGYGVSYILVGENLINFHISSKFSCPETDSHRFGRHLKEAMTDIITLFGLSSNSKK

[6] = biological target: T5, Carnitine O-palmitoyltransferase 1, liver isoform (Rattus norvegicus, UniProt P32198); experiment: as §2
T5 sequence (P32198 whole entry): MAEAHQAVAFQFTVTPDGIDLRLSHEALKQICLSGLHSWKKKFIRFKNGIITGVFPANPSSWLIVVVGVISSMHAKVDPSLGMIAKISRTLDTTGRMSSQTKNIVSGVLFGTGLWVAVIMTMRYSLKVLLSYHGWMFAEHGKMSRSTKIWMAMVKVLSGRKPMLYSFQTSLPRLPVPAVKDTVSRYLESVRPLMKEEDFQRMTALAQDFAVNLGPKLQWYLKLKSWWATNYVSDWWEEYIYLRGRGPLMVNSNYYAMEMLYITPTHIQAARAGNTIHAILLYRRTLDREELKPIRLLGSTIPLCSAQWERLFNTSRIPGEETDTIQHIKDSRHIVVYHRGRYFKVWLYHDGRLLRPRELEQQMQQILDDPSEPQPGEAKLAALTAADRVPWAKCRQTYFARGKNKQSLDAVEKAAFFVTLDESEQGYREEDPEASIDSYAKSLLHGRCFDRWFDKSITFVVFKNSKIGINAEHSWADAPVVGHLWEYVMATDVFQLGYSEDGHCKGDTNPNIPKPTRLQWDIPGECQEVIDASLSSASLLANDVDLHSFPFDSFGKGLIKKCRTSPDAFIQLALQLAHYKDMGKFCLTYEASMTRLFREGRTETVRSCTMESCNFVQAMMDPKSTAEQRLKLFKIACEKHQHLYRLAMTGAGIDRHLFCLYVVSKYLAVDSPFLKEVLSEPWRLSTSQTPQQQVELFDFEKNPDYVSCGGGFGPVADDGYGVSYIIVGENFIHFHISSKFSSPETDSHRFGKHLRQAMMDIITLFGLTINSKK

[7] = SUPPLEMENTARY: PAMPA permeability assay; type: physicochemical; settings: read-out: Permeability

Row | solubility kinetic [1] [µg/mL] | pIC50 [2] | pIC50 [3] | pIC50 [4] | pIC50 [5] | pIC50 [6] | Papp [7] [×10⁻⁶ cm/s] | Compound
1 | 10 (≈ 24.4 µM) | < 4.00 | 4.77 |  | 6.59 | 6.12 | 5.48 | O=C(COc1ccccc1)N1CCCC[C@@H]1c1nc(-c2cccc([N+](=O)[O-])n2)no1
2 | 8 (≈ 16 µM) | 5.23 | 5.67 | 5.54 | 7.57 | 7.49 | 3.2 | COc1ccc(Cl)cc1S(=O)(=O)N1CCCc2ccc(C(=O)Nc3ccc(C(=O)O)cc3)cc21
3 | 13 (≈ 27.3 µM) | 4.96 | 5.90 | 4.71 | 6.91 | 6.83 | 1.24 | COc1ccc(Cl)cc1CN1C(=O)C2(CC2)c2ccc(C(=O)Nc3ccc(C(=O)O)cc3)cc21
4 | 4 (≈ 9.82 µM) | < 4.00 | 4.89 |  | 6.61 | 6.62 | 0.66 | O=C(COc1ccccc1)N1CCCCC1c1ncc(-c2cccc([N+](=O)[O-])c2)o1 (centres undefined)
5 | < 1 | < 4.00 | < 4.00 | < 4.00 | 6.65 |  |  | Cc1cc(C)cc(S(=O)(=O)c2n[nH]c3ccc(C(=O)Nc4ccccc4)cc23)c1
6 | > 525 |  | 4.54 | 4.30 | 7.71 | 7.02 | 3.55 | O=C([O-])c1cccc(-c2csc([C@H]3CCCCN3C(=O)COc3ccccc3)n2)c1.[Na+]
7 | < 1 | < 4.00 | 4.70 | < 4.00 | 7.49 | 6.51 |  | O=C(COc1ccccc1)N1CCCC[C@@H]1c1noc(C2C[C@@H]3CC[C@H]2C3)n1 (some centres undefined)
8 |  | < 4.00 | < 4.00 | < 4.00 | 7.05 | 6.31 |  | O=C(COc1ccccc1)N1CCNCC1c1nc(-c2ccc(N3CCOCC3)cc2)no1 (centres undefined)
9 |  | < 4.00 | 5.99 | 5.47 | 6.62 | 6.23 |  | O=C([C@H]1CCCCN1C(=O)COc1ccccc1)N1CCN(c2ccccn2)CC1
10 |  | 5.86 | < 4.00 | < 4.00 | 6.47 | 6.16 |  | CCN(c1cc(C(=O)Nc2ccn(CC(=O)O)n2)cc2c1OCO2)S(=O)(=O)c1cc(Cl)ccc1OC

Second part, the compound before the results:

Row | Compound | solubility kinetic [1] [µg/mL] | pIC50 [2] | pIC50 [3] | pIC50 [4] | pIC50 [5] | pIC50 [6] | Papp [7] [×10⁻⁶ cm/s]
11 | COc1ccc(C)cc1S(=O)(=O)n1ccc2ccc(C(=O)Nc3ccc(C(=O)O)cc3)cc21 | < 1 | 5.58 | 5.97 | 5.57 | 7.53 | 7.92 | 1.23
12 | COc1ccc(Cl)cc1S(=O)(=O)c1nn(C)c2ccc(C(=O)Nc3ccc(C(=O)O)cc3)cc12 | 8 (≈ 16 µM) | < 4.00 | < 4.00 | < 4.00 | 7.30 | 7.19 | 1.89
13 | COc1ccc(Cl)cc1S(=O)(=O)N1CCOc2c1cc(C(=O)Nc1ccc(C(=O)O)cc1)cc2C(F)(F)F | 103 (≈ 180 µM) | < 4.00 | 5.64 | 5.28 | 7.11 | 6.81 | 2.65
14 | Cn1cc(Sc2cccc(Cl)c2)c2cc(C(=O)Nc3ccc(C(=O)O)cc3)ccc21 | 7 (≈ 16 µM) | 5.95 | 5.29 | 5.13 | 7.36 | 7.67 | 0.13
15 | COc1ccc(Cl)cc1S(=O)(=O)N1CCOc2c(C)cc(C(=O)Nc3ccc(C(=O)O)cc3)cc21 | 2 (≈ 3.87 µM) | 4.68 | 6.26 | 5.36 | 7.33 | 7.38 | 1.68
16 | COc1ccc(Cl)cc1S(=O)(=O)N1CCc2ccc(C(=O)Nc3ccc(C(=O)O)cc3)cc21 | 5 (≈ 10.3 µM) | < 4.00 |  | 5.11 |  | 7.26 | 2.78
17 | COc1ccc(Cl)cc1S(=O)(=O)N1CCSc2ccc(C(=O)Nc3ccc(C(=O)O)cc3)cc21 | 4 (≈ 7.71 µM) | < 4.00 | < 4.00 | < 4.00 | 7.18 | 7.24 | 
